Experimental data from patent publication US12637471B2, “Heterocyclic compounds, compositions, methods of preparation and uses thereof” (Organon R&D Finland Ltd, priority 2021, dated 2026).

Experiments:
Format in all cases: biochemical
[1] = molecular target: T1, 17β-Hydroxysteroid Dehydrogenase Type 2 Enzyme (17β-HSD2) (Homo sapiens, UniProt P37059); test: Inhibition of the 17β-hydroxysteroid dehydrogenase type 2 enzyme, 3H-testosterone conversion; conditions: inhibitor at 10 μM
T1 construct: made in house; host or cells: Sf-9 insect cells (baculovirus)
T1 sequence (P37059 1-387): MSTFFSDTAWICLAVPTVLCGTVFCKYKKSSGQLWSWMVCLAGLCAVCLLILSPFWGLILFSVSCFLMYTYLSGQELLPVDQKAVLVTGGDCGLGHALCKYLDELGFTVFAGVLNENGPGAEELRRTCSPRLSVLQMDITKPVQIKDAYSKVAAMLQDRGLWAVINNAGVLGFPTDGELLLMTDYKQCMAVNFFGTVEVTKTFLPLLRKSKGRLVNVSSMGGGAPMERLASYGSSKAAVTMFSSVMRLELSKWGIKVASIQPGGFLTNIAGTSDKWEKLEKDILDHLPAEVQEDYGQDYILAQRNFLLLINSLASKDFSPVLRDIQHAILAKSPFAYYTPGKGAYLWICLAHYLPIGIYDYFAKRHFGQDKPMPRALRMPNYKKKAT
Method: Inhibition of the 17β-Hydroxysteroid Dehydrogenase Type 2 Enzyme
Recombinant human 173-HSD2 protein (GenBank Accession No. NM_002153.3) produced in Sf-9 insect cells with baculovirus was used for screening.
Recombinant protein (105 nM/4.5 μg/ml) was incubated in 20 mM KH2PO4 pH 8.5, 1 mM EDTA, complete protease inhibitor cocktail, 1 mM NAD with 56.25 nM testosterone (including ^3H-labelled testosterone) for 30 min at RT, in the presence of the potential inhibitor at 10 μM concentration. Inhibitor stock solutions were prepared in DMSO. Final concentration of DMSO was adjusted to 1% in all samples. The enzyme reaction was stopped by addition of 10% trichloroacetic acid (final concentration 1%). Samples were filtrated through […] filtration plate. Analyses of samples was done with Waters Acquity UPLC H-class equipped with XBridge C18 column and XBridge VanGuard C18 guard column. Acetonitrile: 0.1% formic acid in water (42/58 v/v) with flow of 1.2 ml/min was used for mobile phase. The eluent was mixed with scintillant and the radioactivity was monitored in the eluate by a Scintillation Analyser. The conversion percentage of tritiated substrate (testosterone) to product tritiated (androstenedione) for each sample was determined by the relative percentages of substrate and product in the chromatogram. The inhibition percentages of samples were calculated using following formula: […]

[2] = molecular target: T2, Recombinant human aldo-keto reductase family 1 member C2 (AKR1C2) protein (Homo sapiens, UniProt P52895); test: Inhibition of the aldo-keto reductase family 1 member C2, 3H-dihydrotestosterone conversion; conditions: inhibitor at 10 μM
T2 construct: made in house; host or cells: Sf-9 insect cells (baculovirus)
T2 sequence (P52895 1-323): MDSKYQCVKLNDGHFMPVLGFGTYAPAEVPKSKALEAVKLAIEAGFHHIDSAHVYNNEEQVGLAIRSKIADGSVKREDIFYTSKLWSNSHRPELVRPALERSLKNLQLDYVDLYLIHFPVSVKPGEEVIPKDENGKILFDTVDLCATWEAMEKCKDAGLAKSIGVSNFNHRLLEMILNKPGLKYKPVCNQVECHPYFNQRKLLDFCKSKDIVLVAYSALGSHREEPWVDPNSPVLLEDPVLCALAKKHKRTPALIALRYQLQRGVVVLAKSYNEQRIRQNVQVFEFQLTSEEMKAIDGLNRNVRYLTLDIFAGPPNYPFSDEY
Method: Inhibition of the Aldo-Keto Reductase Family 1 Member C2
Recombinant human aldo-keto reductase family 1 member C2 (AKR1C2) protein (GenBank Accession No. NM_001354.6) produced in Sf-9 insect cells with baculovirus was used for screening. Recombinant protein (13.6 nM/0.5 μg/ml) was incubated in 20 mM KH2PO4 pH 7.4, 1 mM EDTA, complete protease inhibitor tablet, 1 mM NADPH with 6.25 nM ^3H-labelled dihydrotestosterone for 45 min at +37° C., in the presence of the potential inhibitor at 10 μM concentration. Inhibitor stock solutions were prepared in DMSO. Final concentration of DMSO was adjusted to 1% in all samples. The enzyme reaction was stopped by addition of 10% trichloroacetic acid (final concentration 1%). Samples were filtrated through […] filtration plate (Merck). Analyses of samples was done with Waters Acquity UPLC H-class equipped with XBridge C18 column and XBridge VanGuard C18 guard column. Acetonitrile: 0.1% formic acid in water (42/58 v/v) with flow of 1.2 ml/min was used for mobile phase. The eluent was mixed with scintillant and the radioactivity was monitored in the eluate by a Scintillation Analyser. The conversion percentage of triated substrate (dihydrotestosterone) to tritiated product (5α-androstane-3α,17β-diol) for each sample was determined by the relative percentages of substrate and product in the chromatogram. The inhibition percentages of samples were calculated using following formula: […]

[3] = molecular target: T3, Recombinant human AKR1C3 (17β-HSD5) protein (Homo sapiens, UniProt P42330); test: Inhibition of AKR1C3 (17β-hydroxysteroid dehydrogenase type 5) enzyme, fluorescence assay; conditions: inhibitor at 500 nM
T3 construct: made in house; host or cells: E. coli
T3 sequence (P42330 1-323): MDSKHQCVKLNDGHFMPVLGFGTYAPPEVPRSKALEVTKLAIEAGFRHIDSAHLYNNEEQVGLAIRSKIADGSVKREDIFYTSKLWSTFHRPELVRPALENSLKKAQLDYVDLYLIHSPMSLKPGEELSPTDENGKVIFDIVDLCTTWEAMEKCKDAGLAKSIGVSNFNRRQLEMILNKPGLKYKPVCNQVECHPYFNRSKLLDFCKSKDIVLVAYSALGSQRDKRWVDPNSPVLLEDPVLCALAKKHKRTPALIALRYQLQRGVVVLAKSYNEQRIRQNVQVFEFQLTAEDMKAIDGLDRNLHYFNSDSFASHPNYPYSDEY
Method: Inhibition of AKR1C3 (17β-Hydroxysteroid Dehydrogenase Type 5) Enzyme
Recombinant human AKR1C3 (17β-HSD5) protein (GenBank Accession No. NM_003739.6) produced in E. coli was used for screening. Recombinant protein (27 nM/1 μg/ml) was incubated in 20 mM KH2PO4, 1 mM EDTA, complete protease inhibitor cocktail, pH 7.4 with 1 μM 9-acetyl-2,3,6,7-tetrahydro-1H,5H,11H-pyrano[2,3-f]pyrido[3,2,1-ij]quinolin-11-one and 1 mM NADPH for 60 to 120 min at RT, in the presence of the potential inhibitor at 500 nM concentration. Inhibitor stock solutions were prepared in DMSO. Final concentration of DMSO was adjusted to 1% in all samples. The samples were analysed by fluorescent measurement with Tecan Spark microplate reader at wavelengths 420 nm for excitation and 510 nm for emission. Samples were evaluated against standards of 9-(1-hydroxyethyl)-2,3,6,7-tetrahydro-1H,5H,11H-pyrano[2,3-f]pyrido[3,2,1-ij]quinolin-11-one at concentrations 1 μM-10 nM. Background fluorescence was reduced from all the samples and standards. The concentrations of formed product were calculated from the standard curve with Tecan Spark Magellan software. The formed product concentrations were used to calculate conversion percentages. The inhibition percentages for the samples were calculated from the conversion percentages.
Inhibition percentages of samples were calculated using following formula: […]

Structure (SMILES) | inhibition at 10 µM [1] | inhibition at 10 µM [2] | inhibition at 0.5 µM [3]
N#CC(=C1CCN(C(=O)N2CCC(O)CC2)CC1)c1ccc(F)c(F)c1 [Compound 41, 2-(3,4-difluorophenyl)-2-(1-(4-hydroxypiperidine-1-carbonyl)piperidin-4-ylidene)acetonitrile] | 7% | 7% | 96%
N#CC(=C1CCN(C(=O)N2CCCCC2)CC1)c1cc(F)cc(F)c1 [Compound 10, 2-(3,5-difluorophenyl)-2-(1-(piperidine-1-carbonyl)piperidin-4-ylidene)acetonitrile] | 4% | 10% | 89%
COC1CCN(C(=O)N2CCC(=C(C#N)c3ccc(Cl)cn3)CC2)CC1 [Compound 81, 2-(5-chloropyridin-2-yl)-2-(1-(4-methoxypiperidine-1-carbonyl)piperidin-4-ylidene)acetonitrile] | 10% | -7% | 95%
N#CC(=C1CCN(C(=O)N2CC(C#N)C2)CC1)c1ccc(F)c(F)c1 [Compound 36, 1-(4-(cyano(3,4-difluorophenyl)methylene)piperidine-1-carbonyl)azetidine-3-carbonitrile] | -3% | 10% | 94%
CCOC1CCN(C(=O)N2CCC(=C(C#N)c3ccc(C(F)(F)F)cc3)CC2)CC1 [Compound 128, 2-(1-(4-ethoxypiperidine-1-carbonyl)piperidin-4-ylidene)-2-(4-(trifluoromethyl)phenyl) acetonitrile] | 17% | 2% | 93%
N#CC(=C1CCN(C(=O)N2CC3CCCC3C2)CC1)c1ccc(F)cc1 (stereo not drawn) [Compound 101, 2-(4-fluorophenyl)-2-(1-(octahydrocyclopenta[c]pyrrole-2-carbonyl)piperidin-4-ylidene)acetonitrile] | 14% | 11% | 90%
COCC1CCN(C(=O)N2CCC(=C(C#N)c3cccc(Cl)c3)CC2)CC1 [Compound 153, 2-(3-chlorophenyl)-2-(1-(4-(methoxymethyl)piperidine-1-carbonyl)piperidin-4-ylidene)acetonitrile] | 26% | 14% | 95%
CC(C)OC1CCN(C(=O)N2CCC(=C(C#N)c3ccc(Cl)cc3)CC2)CC1 [Compound 133, 2-(4-chlorophenyl)-2-(1-(4-isopropoxypiperidine-1-carbonyl)piperidin-4-ylidene)acetonitrile] | 23% | 16% | 97%

Results, then the compound that gave them:

inhibition at 10 µM [1] | inhibition at 10 µM [2] | inhibition at 0.5 µM [3] | Structure (SMILES)
11% | 8% | 102% | N#CC(=C1CCN(C(=O)N2CCn3cncc3C2)CC1)c1ccc(Cl)cc1 [Compound 46, 2-(4-chlorophenyl)-2-(1-(5,6,7,8-tetrahydroimidazo[1,5-a]pyrazine-7-carbonyl)piperidin-4-ylidene)acetonitrile]
16% | 19% | 104% | N#CC(=C1CCN(C(=O)N2CCc3[nH]ncc3C2)CC1)c1ccc(Cl)cc1 [Compound 113, 2-(4-chlorophenyl)-2-(1-(4,5,6,7-tetrahydro-1H-pyrazolo[4,3-c]pyridine-5-carbonyl)piperidin-4-ylidene)acetonitrile]
29% | 9% | 98% | N#CC(=C1CCN(C(=O)N2CCc3[nH]ncc3C2)CC1)c1cccc2[nH]ncc12 [Compound 60, 2-(1H-indazol-4-yl)-2-(1-(4,5,6,7-tetrahydro-1H-pyrazolo[4,3-c]pyridine-5-carbonyl)piperidin-4-ylidene)acetonitrile]
28% | 19% | 99% | N#CC(=C1CCN(C(=O)N2CCc3sccc3C2)CC1)c1ccc(Cl)s1 [Compound 64, 2-(5-chlorothiophen-2-yl)-2-(1-(4,5,6,7-tetrahydrothieno[3,2-c]pyridine-5-carbonyl)piperidin-4-ylidene)acetonitrile]
